Active and inactive are the calls of the source.
What was measured:
[1] = target: T1, Microphthalmia-associated transcription factor (Homo sapiens, UniProt O75030); assay: reducers of TRPM1 reporter luminescence, concentration series – cell-based, SK-MEL-5, cherry-picked, set 3, MITF inhibitor project, dose response (AID 493073); format: functional;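 further: SK-MEL-5 melanoma cells with luciferase driven by the MITF target TRPM1 promoter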
T1 sequence (O75030 whole entry): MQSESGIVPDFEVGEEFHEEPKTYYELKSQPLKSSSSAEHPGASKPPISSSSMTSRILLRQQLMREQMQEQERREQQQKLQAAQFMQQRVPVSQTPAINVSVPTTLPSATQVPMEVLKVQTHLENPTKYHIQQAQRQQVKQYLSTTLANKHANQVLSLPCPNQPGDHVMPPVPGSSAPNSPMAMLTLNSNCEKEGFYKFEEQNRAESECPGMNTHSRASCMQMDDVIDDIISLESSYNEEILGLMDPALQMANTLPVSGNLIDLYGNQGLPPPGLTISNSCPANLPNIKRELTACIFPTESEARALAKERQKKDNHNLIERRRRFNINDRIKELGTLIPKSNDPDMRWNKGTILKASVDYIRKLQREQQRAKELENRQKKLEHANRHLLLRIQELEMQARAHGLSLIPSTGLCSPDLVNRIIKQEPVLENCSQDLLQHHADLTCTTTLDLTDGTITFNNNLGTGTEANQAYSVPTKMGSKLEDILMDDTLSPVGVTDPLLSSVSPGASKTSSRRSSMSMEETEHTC

[2] = target: T1, Microphthalmia-associated transcription factor; assay: MITF Measured in Cell-Based System Using Plate Reader - 2084-01_Inhibitor_DoseNoFile_CherryPick_Activity_Set2. [Related pubchem assays (depositor defined):AID488944]; format: functional
[3] = target: T1, Microphthalmia-associated transcription factor; assay: reducers of TRPM1 reporter luminescence, concentration series – cell-based, SK-MEL-5, cherry-picked, set 4, MITF inhibitor project, dose response (AID 493102); format: functional
[4] = target: T2, Alkaline phosphatase, tissue-nonspecific isozyme (Homo sapiens, UniProt P05186); assay: potency against alkaline phosphatase TNAP – biochemical, luminescent, dose response, SAR follow-up (AID 1056)
T2 sequence (P05186 whole entry): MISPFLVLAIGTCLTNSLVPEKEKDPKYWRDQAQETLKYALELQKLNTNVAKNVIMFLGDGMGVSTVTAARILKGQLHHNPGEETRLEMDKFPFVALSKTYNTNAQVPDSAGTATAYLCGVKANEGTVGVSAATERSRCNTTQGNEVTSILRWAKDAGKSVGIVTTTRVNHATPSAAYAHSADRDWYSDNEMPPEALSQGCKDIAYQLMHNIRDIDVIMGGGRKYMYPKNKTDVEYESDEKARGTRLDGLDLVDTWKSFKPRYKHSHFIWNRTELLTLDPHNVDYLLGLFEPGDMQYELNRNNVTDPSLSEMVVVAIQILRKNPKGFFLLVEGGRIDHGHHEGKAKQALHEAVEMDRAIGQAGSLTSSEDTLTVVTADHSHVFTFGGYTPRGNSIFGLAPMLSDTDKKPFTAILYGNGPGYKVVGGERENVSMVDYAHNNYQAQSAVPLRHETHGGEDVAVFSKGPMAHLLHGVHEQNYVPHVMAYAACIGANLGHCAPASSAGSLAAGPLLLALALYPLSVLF

[5] = target: Alkaline phosphatase, placental type (Homo sapiens, UniProt P05187); assay: human placental alkaline phosphatase inhibition – biochemical, luminescence, confirmation (AID 1512); format: functional
Sequence of Alkaline phosphatase, placental type (P05187 whole entry): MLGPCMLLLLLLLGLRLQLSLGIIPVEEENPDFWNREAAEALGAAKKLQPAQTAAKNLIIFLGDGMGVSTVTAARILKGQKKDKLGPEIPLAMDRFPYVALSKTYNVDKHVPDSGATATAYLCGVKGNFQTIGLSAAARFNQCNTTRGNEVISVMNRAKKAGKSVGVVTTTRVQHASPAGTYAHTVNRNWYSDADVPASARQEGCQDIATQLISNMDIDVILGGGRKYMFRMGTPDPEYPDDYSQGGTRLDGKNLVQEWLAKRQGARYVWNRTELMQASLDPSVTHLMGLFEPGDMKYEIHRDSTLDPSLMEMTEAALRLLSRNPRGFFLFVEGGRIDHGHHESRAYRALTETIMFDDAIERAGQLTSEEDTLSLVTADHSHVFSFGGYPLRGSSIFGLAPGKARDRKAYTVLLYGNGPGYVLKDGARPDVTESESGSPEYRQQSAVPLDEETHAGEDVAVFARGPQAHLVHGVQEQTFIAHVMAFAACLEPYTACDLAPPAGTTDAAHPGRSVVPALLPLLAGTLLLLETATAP

[6] = target: Glyceraldehyde-3-phosphate dehydrogenase (Homo sapiens, UniProt P04406)
Sequence of Glyceraldehyde-3-phosphate dehydrogenase (P04406 whole entry): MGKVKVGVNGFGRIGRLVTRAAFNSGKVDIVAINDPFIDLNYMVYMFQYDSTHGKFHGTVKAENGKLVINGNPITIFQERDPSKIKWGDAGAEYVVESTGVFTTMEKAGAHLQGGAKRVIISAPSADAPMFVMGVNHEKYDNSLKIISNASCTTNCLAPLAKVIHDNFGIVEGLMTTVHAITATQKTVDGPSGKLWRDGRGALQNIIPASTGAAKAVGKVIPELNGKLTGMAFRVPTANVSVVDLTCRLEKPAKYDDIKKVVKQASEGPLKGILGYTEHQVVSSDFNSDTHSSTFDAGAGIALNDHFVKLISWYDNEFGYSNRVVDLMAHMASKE

X-box-binding protein 1 = X-box-binding protein 1 (Homo sapiens, UniProt P17861); format: functional, Cricetulus griseus;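 further: confirmatory dose-response counter-screen serving a CHOP assay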
Sequence of X-box-binding protein 1 (P17861 whole entry): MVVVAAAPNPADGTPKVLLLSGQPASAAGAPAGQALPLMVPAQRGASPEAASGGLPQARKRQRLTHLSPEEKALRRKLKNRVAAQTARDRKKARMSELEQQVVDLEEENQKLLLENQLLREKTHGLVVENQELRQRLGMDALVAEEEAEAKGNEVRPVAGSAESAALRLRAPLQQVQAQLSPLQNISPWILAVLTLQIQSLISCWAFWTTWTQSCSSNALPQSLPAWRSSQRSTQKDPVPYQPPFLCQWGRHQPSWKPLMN

[7] = target: DNA damage-inducible transcript 3 protein (Mus musculus, UniProt P35639); format: functional, Cricetulus griseus
Sequence of DNA damage-inducible transcript 3 protein (P35639 whole entry): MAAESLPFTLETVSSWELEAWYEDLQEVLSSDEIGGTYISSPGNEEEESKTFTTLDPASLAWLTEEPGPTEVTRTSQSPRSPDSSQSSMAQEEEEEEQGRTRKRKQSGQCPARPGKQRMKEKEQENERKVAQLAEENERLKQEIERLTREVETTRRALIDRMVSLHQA

[8] = Trypanosoma cruzi growth suppression in host cells – NIH3T3 host cells, beta-gal luminescence, confirmation (AID 2044); format: functional, cell-based;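 further: intracellular parasites grown in NIH/3T3 mouse fibroblasts as host cells; luminescent beta-galactosidase reporter signal from transgenic T. cruzi replicating inside host cells; inhibitors lower the luminescence signal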
HEK293 [9] = assay: NOD2 signaling inhibitors in MDP-stimulated cells, cell-based, uHTS, luminescence (AID 2001); format: functional; settings: Homo sapiens
HEK293 [10] = assay: cells; format: functional, cell-based; settings: Homo sapiens
cells = format: functional
HEK293 [11] = assay: cells; format: functional, cell-based; settings: Homo sapiens; remark: listed apart in the source
BJ [12] = assay: BJ-TERT fibroblast viability loss – cell-based, RAS-independent, luminescence, dose response (AID 1933); format: functional; settings: Homo sapiens
INS1 = assay: INS-1E survival protection against cytokine death – cell-based, luminescence, retest, dose response (AID 449756); format: functional; settings: Rattus norvegicus;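 further: cell death triggered by IL-1 beta plus TNF-alpha plus IFN-gamma mixture; protective hits raise ATP signal compared with cytokine alone wells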
[13] = HepG2 cell cytotoxicity, dose response, cytotoxicity control for non-replicating M. tuberculosis project (AID 489018); format: functional; settings: Mycobacterium tuberculosis
[14] = THP-1 cell cytotoxicity, dose response, cytotoxicity control for non-replicating M. tuberculosis project (AID 489025); format: functional
[15] = loss of viability in HepG2 cells – cell-based, CellTiter-Glo, cherry-picked, cytotoxicity control for Shn3 inhibitor project, dose response (AID 624134); format: functional
[16] = target: FAD-linked sulfhydryl oxidase ALR (Homo sapiens, UniProt P55789); assay: ALR-catalysed DTT oxidation blockers – biochemical, H2O2 detection, luminescence, cherry-pick, dose response (AID 493248)
Sequence of FAD-linked sulfhydryl oxidase ALR (P55789 whole entry): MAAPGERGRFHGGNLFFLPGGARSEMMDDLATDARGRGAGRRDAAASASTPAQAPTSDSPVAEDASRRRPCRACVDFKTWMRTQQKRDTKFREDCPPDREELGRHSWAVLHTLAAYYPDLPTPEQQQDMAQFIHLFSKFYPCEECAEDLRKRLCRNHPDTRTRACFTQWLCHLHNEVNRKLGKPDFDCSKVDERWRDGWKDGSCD

[17] = Vero E6 cell cytotoxicity, dose response, cytotoxicity control for non-replicating M. tuberculosis project, secondary assay (AID 492998); format: functional, VeroE6; settings: Vero C1008
[18] = reduction of Shn3 3'UTR-driven luciferase in osteoblasts – cell-based, Clone20 osteoblasts, firefly luciferase, cherry-picked, dose response (AID 624132); format: functional;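 further: firefly luciferase luminescence from reporter carrying the Shn3 3'UTR in osteoblasts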
[19] = DRD fibroblast viability loss – cell-based, non-viral oncogenic, luminescence, dose response (AID 1934); format: functional; settings: Homo sapiens
[20] = viability of HCT116 lacking mutant beta-catenin – cell-based, human colon tumor, dose response (AID 1045); format: functional;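 further: HCT116 colon tumor cells with beta catenin knocked out; cells exposed to compound for 60 hours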
HEK293 [21] = assay: inhibition of NOD1-driven NF-kB reporter – cell-based, luminescence, uHTS, primary screen (AID 1578); format: functional; settings: Homo sapiens
[22] = target: Heat shock protein HSP 90-alpha (Homo sapiens, UniProt P07900); format: functional, organism-based
BJ [23] = assay: cells; format: functional, cell-based; settings: Homo sapiens
HEK293 [24] = assay: cells; format: functional, cell-based; settings: Homo sapiens; remark: listed apart in the source
[25] = target: Nucleotide-binding oligomerization domain-containing protein 2 (Homo sapiens, UniProt Q9HC29); assay: inhibition of NOD2-driven NF-kB reporter – cell-based, luminescence, uHTS, HEK293 (AID 1566); format: functional
Sequence of Nucleotide-binding oligomerization domain-containing protein 2 (Q9HC29 whole entry, the tested form may be a part): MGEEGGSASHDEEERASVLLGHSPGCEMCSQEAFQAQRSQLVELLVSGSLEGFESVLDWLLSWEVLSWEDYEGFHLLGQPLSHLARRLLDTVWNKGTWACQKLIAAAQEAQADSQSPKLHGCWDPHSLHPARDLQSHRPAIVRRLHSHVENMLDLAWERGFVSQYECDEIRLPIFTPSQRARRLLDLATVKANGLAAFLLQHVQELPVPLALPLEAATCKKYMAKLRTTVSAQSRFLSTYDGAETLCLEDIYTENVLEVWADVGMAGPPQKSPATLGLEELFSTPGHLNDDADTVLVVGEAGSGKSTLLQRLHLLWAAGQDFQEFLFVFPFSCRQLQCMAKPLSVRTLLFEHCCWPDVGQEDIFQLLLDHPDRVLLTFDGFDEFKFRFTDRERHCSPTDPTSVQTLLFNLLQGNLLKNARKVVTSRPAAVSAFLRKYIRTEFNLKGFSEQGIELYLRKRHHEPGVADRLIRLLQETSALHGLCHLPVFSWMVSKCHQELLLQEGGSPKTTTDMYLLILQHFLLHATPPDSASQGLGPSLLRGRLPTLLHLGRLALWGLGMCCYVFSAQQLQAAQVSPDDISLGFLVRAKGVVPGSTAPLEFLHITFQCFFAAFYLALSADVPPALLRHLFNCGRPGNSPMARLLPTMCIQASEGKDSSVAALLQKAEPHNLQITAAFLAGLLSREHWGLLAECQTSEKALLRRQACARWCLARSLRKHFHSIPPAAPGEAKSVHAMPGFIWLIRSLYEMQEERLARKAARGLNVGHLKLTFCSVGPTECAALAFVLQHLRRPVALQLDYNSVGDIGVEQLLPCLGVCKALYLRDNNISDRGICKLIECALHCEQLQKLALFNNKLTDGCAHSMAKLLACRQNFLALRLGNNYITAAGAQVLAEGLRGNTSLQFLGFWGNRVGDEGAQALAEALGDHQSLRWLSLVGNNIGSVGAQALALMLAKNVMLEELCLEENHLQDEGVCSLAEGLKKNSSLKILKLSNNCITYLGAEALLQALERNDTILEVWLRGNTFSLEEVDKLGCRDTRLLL

[26] = NIH3T3 cell viability loss – ATP luminescence, mouse fibroblasts, counter-screen, dose response (AID 2010); format: functional, cell-based;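 further: cells exposed to compound for about 90 hours before reading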
[27] = non-specific 3'UTR reporter inhibition in Clone20-Shn3RL – cell-based, Renilla luciferase, cherry-picked, counter-screen for Shn3 inhibitor project, dose response (AID 624133); format: functional
BJ [28] = assay: BJ-TERT-LT-ST fibroblast viability loss – cell-based, RAS-independent, luminescence, dose response (AID 1935); format: functional; settings: Homo sapiens;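 further: BJ fibroblasts immortalized with TERT plus LT and ST oncogenes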
[29] = viability of PTEN-deleted HCT116 cells – cell-based, HCT116 PTEN knockout, dose response (AID 1047); format: functional;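 further: HCT116 colon tumor cells with PTEN knocked out; cells exposed to compound for 60 hours before readout; potency for loss of cell viability measured by luminescence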

CN(C)Cc1c(O)ccc2c1O/C(=C\C=C\c1ccccc1)C2=O
inactive: AC50 [1] > 350 µM | AC50 [2] > 350 µM | AC50 [3] > 350 µM

CC(C)Cc1nc(N)nn1-c1ccccc1
inactive: IC50 [4] > 100 µM | IC50 [5] > 100 µM
> 100 µM (not active): IC50 [6]

O=C(CSC1c2ccccc2-c2ccccc21)N/N=C/c1ccccc1
10 µM: Absolute IC50 (XBP1) (X-box-binding protein 1) | Absolute IC50 (CHOP) [7]

O=S1(=O)C=C(Sc2nnc(-c3ccccc3)o2)c2ccccc21
inactive: IC50 (HEK293 [9]) 6.48 µM | IC50 (HEK293 [10]) > 20 µM | EC50 (HEK293 [21]) > 20 µM | IC50 (HEK293 [24]) > 20 µM | EC50 [25] > 20 µM
active: EC50 [8] 0.941 µM | IC50 (cells) 1.13 µM | IC50 (HEK293 [11]) 5.52 µM | EC50 (BJ [12]) 1.48 µM | AC50 (INS1) 7.3 µM | CC50 [13] 18.5 µM | CC50 [14] 6.02 µM | AC50 [15] 8.89 µM | AC50 [16] 0.281 µM | CC50 [17] 2.87 µM | AC50 [18] 1.7 µM | EC50 [19] 4.19 µM | EC50 [20] 2.8 µM | AC50 [22] 2.9 µM | EC50 [26] 2.33 µM | AC50 [27] 4 µM | EC50 [29] 2.38 µM
inconclusive: EC50 (BJ [23]) 7.16 µM | EC50 (BJ [28]) 2.8 µM
